Measured values: patent US9155774B2, “Scaffold-kinase interaction blockades and uses thereof in treating cancer” (THE BOARD OF TRUSTEES OF THE LELAND STANFORD JUNIOR …, priority 2011, dated 2015)
Entries after “also recorded” stand apart in the source; their conditions may differ.

What was measured:
[1] = tested on: IQGAP1-Erk1/2 interaction; test: Immunoprecipitation of endogenous IQGAP1 protein and associated Erk; type: cell-based, human; details: 10 μM peptide daily for six days, SK-MeI-28 cells
Description: (A) Immunoprecipitation of endogenous IQGAP1 protein and associated Erk from primary human cells (normal) or BRAFV600E mutant SK-MeI-28 melanoma cells (cancer) following daily treatment with 10 μM R8-myc-tagged SCR or WW peptide for six days. (B) Relative Erk levels as a function of immunoprecipitated IQGAP1 as in (d). n=3, ±SD.
Immunoprecipitation of endogenous IQGAP1 protein and associated Erk. Cells were cross-linked with 1 mL of 20 mM DSP (Thermo Scientific) for 1 hour at 4° C. and the reaction was stopped with washes in 50 mM Tris. Cells were lysed in 20 mM Tris, 150 mM NaCl, 0.2% NP40, 10% Glycerol with 0.5 mM dTT and protease/phosphatase inhibitors added directly before use (buffer 1) for 1 hour at 4° C., but not pelleted. 1 mg lysate in 500 uL was combined with 5 ug of mouse anti-IQGAP1 antibody (Millipore 05-504) in buffer 1 and rocked overnight at 4° C. 30 uL of protein G sepharose 4 fast flow (GE Healthcare) were washed in buffer 1 and combined with lysate for 1 hour at 4° C. Supernatent was removed to check for immunodepletion. Beads were washed 3 times in 20 mM Tris, 150 mM NaCl, 1% Triton X-100 with protease/phosphatase inhibitors added directly before use (buffer 2). Immunoprecipitate was eluted from beads in 200 uL of 4×LDS sample buffer in buffer 1 plus 5% BME. […]

[2] = tested on: SK-MeI-28 melanoma xenograft tumors; test: Systemic delivery of WW peptide in vivo by osmotic pump; details: subcutaneous osmotic pump, 19 mg/kg/day for 14 days
Description: (A) Established xenograft tumors derived from BRAFV600E mutant SK-MeI-28 melanoma cancer cells were subcutaneously implanted with osmotic pumps (Alzet model 2002) (indicated by black arrows) which released 19 mg/kg/day of R8-myc-tagged Scrambled or WW peptide for 14 days (indicated by hash bars) with tumor growth quantified by mean average radiance (n=3 mice per group). […] (D) Representative data of tumor growth as quantified by tumor volume±SEM from d28 and d43.
(§1) Systemic delivery of WW peptide in vivo. 0.5×10^6 luciferase-expressing SK-MeI-28 were injected into the subcutaneous space of hairless immunodeficient 6-8 week old SCID mice (SHO stock, Charles Rovers). Mouse xenografts were allowed to grow untreated for 1 week. Subsequently, tumors were measured and randomized two groups of similar tumor size. Each group was subcutaneously implanted with osmotic pumps (Alzet, model 2002) releasing 0.5 uL of R8-myc-tagged scrambled or WW peptide per hour for 14 days.
as §1, with “To test the efficacy of systemic” for “Systemic”, “vivo,” for “vivo.”, “of” for “of R8-myc-tagged”

[3] = tested on: Ras-driven organotypic human epidermal neoplasia; test: Ras-driven organotypic human epidermal neoplasia (ER:H-RAS/CDK4, 4OHT) invasion; type: cell-based; details: peptide 10 uM daily in media vs scrambled control peptide
Description: (§2) Retroviral Transduction. […] Alternatively transformation was achieved through combined infection with an LTR-driven retrovirus expressing oncogenic ER:H-RAS and a separate LTR-driven retrovirus expressing cyclin-dependent kinase 4 (CDK4). Polybrene was added to a final concentration of 5 ug/mL to cell media during infection. Infections were performed at 37° C. with low-speed centrifugation for 1 hour. Expression of these viral constructs was verified in vitro. […] As a control for a RAS-IκBα bicistronic virus (IIR), we also infected a separate pool of keratinocytes with a LacZ control virus. For dual ER:H-RAS and CDK4 infected cells, forty-eight hours after infection cultures were daily treated with either […] 40 hydroxytamoxifen or an equal volume of ethanol (vehicle).
(§3) Human Tissue Model System. […] Pieces with less hair follicles are preferable. […] Subsequently, the epidermis is peeled off. […] Tissue was grown for five to ten days total. For immunofluorescence analysis, tissue was placed in OCT.
(§4) Immunofluorescence and Invasion index. […] Tissue was counterstained with Hoescht to visualize cell nuclei.
Exogenous delivery of the WW domain to human tissue. […] Briefly stromal primary human fibroblasts were seeded onto devitalized human dermis and subsequently elevated to a sterilized annular dermal support (ADS) tissue culture insert device (Ridky, supra). […]

[4] = tested on: PLX-4032 sensitive BRAFV600E melanoma cell lines (SK-MeI-28, A375, SK-MeI-5); test: Proliferation of PLX-4032 sensitive melanoma lines with peptide; type: cell-based, human; details: increasing doses of R8-myc-tagged WW peptide
Description: (A) Proliferation of PLX-4032 sensitive BRAFV600E melanoma cell lines (P1, SK-MeI-28; P2, A375; and P3, SK-MeI-5) at increasing doses of R8-myc-tagged WW peptide. (B) Proliferation assays of PLX-4032 resistant lines (R1, SK-MeI-28; R2, A375; and R3, SK-MeI-5) treated with 5 μM R8-myc-tagged SCR peptide and DMSO (control), 5 μM SCR peptide and 5 μM PLX-4032 (PLX-4032), or 5 μM R8-myc-tagged WW peptide and DMSO (5 μM WW).
Cell Viability Assay. Genetically modified adherent cancer cell lines were seeded in equivalent, low density cultures in duplicate to 24-well plates. 24 hours post-seeding, media was removed and replaced with 500 uL of a 5:1 mixture of cell media and cell titre blue reagent (Promega). Cultures were incubated with this mixture for 2 hours at 37° C. in the dark. Fluorescence ([…]) for 100 uL in triplicates of each sample was recorded. Incubation with cell titre blue reagent and fluorescent readings were repeated every two days for a total of twelve days. Values plotted correspond to readings taken while control samples are still growing exponentially.

[5] = tested on: ERK; test: Protein expression analysis of phosphorylated and total ERK (immunoblot / immunohistochemistry); type: cell-based, human; details: Ras-driven organotypic neoplasia, peptide 10 uM daily
Description: Protein Expression Analysis. Cells were lysed in 20 mM Tris (pH 7.5), 150 mM NaCl, 1 mM EDTA, and 1% NP40 supplemented with complete mini EDTA-free protease inhibitors (Roche) and phosphatase inhibitor cocktails I and II (Sigma-Aldrich). 5-20 ug of lysate were loaded per lane, subjected to 10-12% SDS-PAGE or 16% Tricine electrophoresus (Invitrogen NuPage), and subsequently transfer to PVDF membranes via semidry transfer. Primary antibody incubations were performed overnight at 4° C. Secondary antibody incubations were for 1 hour at room temperature. The following antibodies were used: rabbit anti-ERK1/2 (1:1000, Cell Signaling, 9201), rabbit anti-phosphorylated ERK1/2 (1:1000, Thr202/Tyr204, Cell Signaling, 9201), mouse anti-IQGAP1 (1:400, Upstate, 05-504), rabbit anti-RAS (1:500, Santa Cruz, sc-520), rabbit anti-IκBa (1:500, Cell Signaling, 9242), Rabbit anti-β-Galactosidase (1:1000, Cappel, 55976), rabbit anti myc (1:500, Abcam, ab9106), mouse anti-actin (1:10,000, Sigma, 5316), donkey anti-rabbit IgG conjugated to horseradish peroxidase (HRP)(1:20,000, Amersham Biosciences), and donkey anti-mouse IgG conjugated to horseradish peroxidase (HRP)(1:20,000, Amersham Biosciences).

[6] = tested on: PLX-4032 resistant BRAFV600E melanoma lines (SK-MeI-28, A375, SK-MeI-5); test: Proliferation of PLX-4032 resistant melanoma lines; type: cell-based, human; details: 5 μM R8-myc-tagged WW peptide and DMSO
[7] = tested on: normal human organotypic tissue expressing LacZ
[8] = tested on: IQGAP1; test: qRT-PCR validation of IQGAP1 knockdown; type: cell-based, human; details: two, four and six days post-nucleofection
Description: siRNA-mediated knockdown. For each ERK/MAPK scaffold, siRNA oligos were designed and synthesized by Dharmacon. Subsequently, 1×10^6 early-passage neonatal keratinocytes were electroporated with 2 nMol of each siRNA oligo or 1 nMol each of two siRNA oligos using Amaxa nucleofection reagents and according to the manufacturer's protocol. A nonfunctional siRNA served as a negative control and ERK1/2 siRNA served as positive controls. The following siRNA oligos were used for this study (sense/antisense):
shRNA-mediated knockdown. The vectors for pGIPZ shRNA targeting IQGAP1 were designed and purchased through Open Biosystems catalog number V2LHS-86779 for shIQGAP1.E, V2LHS-86781 for shIQGAP1.F, and V2LHS-259635 for shIQGAP1.G. Cells were transduced as above with 1000× puromycin (1 mg/mL) selection applied daily. Transduction of cells was visualized under a fluorescent microscope
qRT-PCR Expression Analysis. At indicated time points, RNA was harvested from cells via treatment with TRIZOL by the standard Invitrogen protocol. Relative mRNA expression was determined by qRT-PCR analysis using a Stratagene Mx3000P thermocycler and Brilliant II SYBR green QRT-PCR 1-step master mix reagents. Primer concentration was 200 nM with 100 ng RNA. Samples were run in triplicate and normalized to levels of GAPDH mRNA for each reaction. The following primers were used for this study: […]

[9] = tested on: H-RAS^G12V/IκBαM organotypic human tissue; test: Organotypic human tissue model of RAS-driven neoplastic invasion; type: cell-based
Description: as §2, §3, §4
Hum Gene Ther 8, 1659-1665 (1997)).

[10] = tested on: normal human organotypic tissue expressing LacZ; test: Normal organotypic human tissue homeostasis; details: drug daily, same concentrations as in neoplastic tissue (UO126 5 μM)
Description: Human Tissue Model System. Dermis can be ordered from National Disease Research Interchange (NDRI) and New York Firefighter Skin Bank. Tissue is inspected for overall thickness as well as continuity across the spectrum. Pieces with less hair follicles are preferable. This tissue is cultures in a mixture of antibiotics and antimyotics for a period of 10-14 days. Subsequently, the epidermis is peeled off. The devitalized dermis is then ready to be repopulated with 2-4×10^5 neonatal human fibroblasts by low speed centrifugation for 1 hour. Tissue is raised to the air-liquid interface and seeded with 0.5-1×10^6 genetically modified human keratinocytes to stimulate differentiation and stratification (Ridky, T. W., et al. Invasive three-dimensional organotypic neoplasia from multiple normal human epithelia. Nat Med 16, 1450-1456 (2010); PrunieRAS, M., et al. Methods for cultivation of keratinocytes with an air-liquid interface. J Invest Dermatol 81, 28-33 (1983)). Tissue was treated with drug/peptide as indicated by application directly into culture media daily. Tissue was grown for five to ten days total. For immunofluorescence analysis, tissue was placed in OCT. For histological analysis, tissue was fixed in 10% formalin (Sigma-Aldrich) and embedded in paraffin.
Immunofluorescence and Invasion index. OCT embedded tissue samples were cut into 7 um sections then fixed and permeabilized by incubation in ice-cold methanol or acetone for 10 minutes at −20° C. followed by blocking in 10% horse serum in PBS for 1 hour. Tissue sections were then incubated with primary antibodies, followed by Alexafluor-488 conjugated or Alexafluor-555 conjugated, goat anti-mouse or goat anti-rabbit secondary antibodies (Molecular Probes). The following antibodies were used: rabbit anti-keratin-5 (1:4000, Covance, PRB-160P), mouse anti-collagen VII (1:200, Millipore, MAB2500), anti-mouse Keratin 10 (1:200, Neomarkers, MS611P), anti-mouse Transglutaminase (1:100, Biomedical Technology, BT-621), anti-rabbit Loricrin (1:200, Covance, PRB-145P), and anti-rabbit Ki67 (1:100, Neomarkers, SP6). Tissue was counterstained with Hoescht to visualize cell nuclei. Microscopy was performed on an Olympus FV1000 scanning laser confocal microscope. For each sample, 30 sequential Z-sections were taken in 3 channels (DAPI—405/450 nm excitation/emission, FITC-488/512 ex/em and TRITC-540/570 ex/em) allowing for subsequent three-dimensional reconstruction analysis. […] Relative invasion index was quantified as number of keratin-positive epithelial cells below the collagen-positive basement membrane zone (BMZ) measured 10 times across 3 independent 20× fields of view. Ki67 quantification was quantified as number of Ki67-positive epithelial cells measured 10 times across 3 independent 20× fields of view. […]

[11] = siRNA-nucleofected keratinocytes
[12] = drug daily in culture media: UO126 5 μM, SB0203580 2.6 μM, PD98059 18.7 μM, LY294002 5 μM

Compound: WW peptide: 32 amino acid IQGAP1 WW domain peptide, myc-tagged, made cell penetrating by adding eight arginine residues (RRRRRRRREQKLISEEDLDNNSKWVKHWVKGGYYYYHNLETQEGGWDEPP)
- total Erk1/2 bound to endogenous IQGAP1 [1]: significantly decreased
- toxic effects to animals [2]: without adverse toxic effects to animals
- weight gain of mice [2]: no negative effects on mouse growth
- tumorigenesis / tumor growth ([2]; 19 mg/kg/day): diminishes tumorigenesis; also recorded: can inhibit tumorigenesis
- BMZ degradation [3]: abrogated BMZ degradation
- neoplastic invasion [3]: abolished neoplastic invasion; also recorded: inhibits neoplastic invasion
- proliferation of BRAF mutant melanoma cells [4]: inhibited proliferation of BRAF mutant melanoma cells in a dose-dependent manner
- pErk1/2 levels [5]: diminished pErk1/2 levels
- growth of PLX-4032-resistant melanoma cells [6]: inhibited growth of PLX-4032-resistant melanoma cells similarly to PLX-4032-sensitive parental cells; also recorded: bypasses resistance to B-Raf inhibitors

Compound: siIQGAP1.B: siRNA to 3′ UTR of IQGAP1, SEQ ID NO: 13/14 (chain 1 CCUCUCGCUCUGAUGGGACAUUUGU; chain 2 ACAAAUGUCCCAUCAGAGCGAGAGG; chemistry not given here)
- normal tissue phenotype [7]: phenotypically normal tissue
- durability of IQGAP1 knockdown [8]: more durable knockdown
- neoplastic invasion [9, 11]: no invasion

Compound: siIQGAP1.A: siRNA to coding sequence of IQGAP1, SEQ ID NO: 11/12 (chain 1 GAACGUGGCUUAUGAGUACUU; chain 2 GUACUCAUAAGCCACGUUCUU; chemistry not given here)
- normal tissue phenotype [7]: phenotypically normal tissue
- neoplastic invasion [9, 11]: no invasion

Compound: C[S+]([O-])c1ccc(-c2nc(-c3ccncc3)c(-c3ccc(F)cc3)[nH]2)cc1 (centres unmarked) [SB203580]
- neoplastic invasion [9, 12]: did not completely block invasion; also recorded: did not see effects

Compound: N#CC(=C(/N)Sc1ccccc1N)/C(C#N)=C(/N)Sc1ccccc1N [UO126]
- normal tissue homeostasis [10]: without affecting normal tissue homeostasis

Compound: COc1cccc(-c2cc(=O)c3ccccc3o2)c1N [PD098059]
- neoplastic invasion [9, 12]: did not have an abrogating effect on neoplastic invasion; also recorded: did not block invasion

Compound: siIQGAP1.C: siRNA to 3′ UTR of IQGAP1, SEQ ID NO: 15/16 (chain 1 CAGCCAUCAUGACAUUUACCAUGAA; chain 2 UUCAUGGUAAAUGUCAUGAUGGCUG; chemistry not given here)
- normal tissue phenotype [7]: phenotypically normal tissue
- durability of IQGAP1 knockdown [8]: more durable knockdown
- neoplastic invasion [9, 11]: no invasion
